Test [1] has as its system Rattus norvegicus. Put plainly: Percent inhibition was determined for in vivo ionophore induced rat pleurisy at a dose of 3 mg/kg. Format: functional.
For test [2], the system named is Rattus norvegicus. Put plainly: In vivo inhibition of ionophore induced rat pleurisy. It counts as functional.

For 58 compounds, I and ED50 results are on record in ChEMBL document CHEMBL1133707, “Heteroarylmethoxyphenylalkoxyiminoalkylcarboxylic acids as leukotriene biosynthesis inhibitors” (J Med Chem, 2000).

Broadly, the ED50 is the dose that gives a 50% effect, or the effect in half of the subjects.

Turning to `C/C(=N\OC(c1cc2ccc(OCc3ccc4ccccc4n3)cc2s1)C1CCCCC1)C(=O)O` (stereo not drawn), the I in test [1] was found to be 80%.

`C/C(=N\OC(c1ccc(OCc2ccc3ccccc3n2)c(C)c1)C1CCCCC1)C(=O)O` (stereo not drawn) yielded an I in test [1] of 58%.

Consider `O=C(O)CSC(CCCc1ccc(Cl)cc1)c1ccc(OCc2ccc3ccccc3n2)cc1` (stereo not drawn), for which, in test [2], the 50% effect level (ED50) was put at a dose of 1.6 mg/kg.

Compound `C/C(=N\OC(c1ccc(OCc2ccc3ccccc3n2)cc1)C1C2CC3CC(C2)CC1C3)C(=O)O` (stereo not drawn) had an ED50 in test [2] of 0.6 mg/kg.

For the compound `CC(c1cc2ccccc2s1)N(O)C(N)=O` (stereo not drawn) [ZILEUTON], in test [2], the 50% effect level (ED50) was put at a dose of 6 mg/kg.

`C/C(CCCCCC(=O)O)=N\OC(c1ccc(OCc2ccc3ccccc3n2)cc1)C1CCCCC1` (stereo not drawn) gave an I in test [1] of 5%.

`O=C(O)/C=N/OC(c1ccc2cc(OCc3ccc4ccccc4n3)ccc2c1)C1CCCCC1` (stereo not drawn) showed an I in test [1] of 24%.

On to `CCCCC(CCCC)C(O/N=C/C(=O)O)c1ccc(OCc2ccc3ccccc3n2)cc1` (stereo not drawn), for which the I in test [1] was found to be 7%.

For `O=C(O)/C(=N/OC(c1ccc(OCc2ccc3ccccc3n2)cc1)C1CCCCC1)c1ccccc1` (stereo not drawn), the I in test [1] is listed as 41%.

As to `C/C(=N\OC(CCCc1ccc(F)cc1)c1ccc(OCc2ccc3ccccc3n2)cc1)C(=O)O` (stereo not drawn), it took a dose of 2.6 mg/kg to reach the 50% effect level in test [2] (ED50).

For `O=C(O)/C=N/OC(c1ccc(OCc2nc3ccccc3o2)cc1)C1CCCCC1` (stereo not drawn), the I in test [1] was 14%.

In turn, `O=C(O)/C=N/OC(c1ccc(OCc2ccc3ccccc3n2)cc1)C1CCCC1` (stereo not drawn) had an I in test [1] of 27%.

As to `O=C(O)/C=N/OC(c1ccc(OCc2ccc3ccccc3n2)cc1)C1CCCCC1` (stereo not drawn), the median effective dose (ED50) in test [2] worked out at 2.5 mg/kg.

Consider `O=C(O)/C=N/OC(c1ccc(OCc2ccc3cc(F)ccc3n2)cc1)C1CCCCC1` (stereo not drawn), for which, in test [1], the I was 39%.

Compound `O=C(O)/C=N/OC(c1ccc(OCc2ccccn2)cc1)C1CCCCC1` (stereo not drawn) gave an I in test [1] of 3%.

For the compound `O=C(O)[C@@H](c1ccc(OCc2ccc3ccccc3n2)cc1)C1CCCC1` [VELIFLAPON], it took a dose of 4 mg/kg to reach the 50% effect level in test [2] (ED50).

`O=C(O)/C=N/OC(c1ccc(OCc2nc3ccccc3s2)cc1)C1CCCCC1` (stereo not drawn) came in with an ED50 in test [2] of 3 mg/kg.

The compound `C/C(=N\OC(c1ccc(OCc2nc3cc(F)ccc3s2)cc1Cl)C1CCCCC1)C(=O)O` (stereo not drawn) registered an I in test [1] of 22%.

In test [1], `O=C(O)/C=N/OC(c1ccc(OCc2nc(-c3ccccc3)cs2)cc1)C1CCCCC1` (stereo not drawn) registered an I of 0%.

In turn, `C/C(=N\OC(c1ccc(OCc2nc3ccccc3s2)cc1Cl)C1CCCCC1)C(=O)O` (stereo not drawn) had an ED50 in test [2] of 2.6 mg/kg.

`C/C(=N\OC(c1ccc(OCc2ccc3ccccc3n2)cc1)C1CCCC1)C(=O)O` (stereo not drawn) returned an I in test [1] of 61%.

In turn, `C/C(=N\OC(c1ccc(COc2ccc3ccccc3n2)cc1)C1CCCCC1)C(=O)O` (stereo not drawn) came in with an I in test [1] of 0%.

In turn, `CCCCC(O/N=C/C(=O)O)c1ccc(OCc2ccc3ccccc3n2)cc1` (stereo not drawn) registered an I in test [1] of 0%.

In test [1], `O=C(O)c1ccc(/C=N/OC(c2ccc(OCc3ccc4ccccc4n3)cc2)C2CCCCC2)cc1` (stereo not drawn) came in with an I of 41%.

Compound `O=C(O)/C(Cc1ccc(O)cc1)=N/OC(c1ccc(OCc2ccc3ccccc3n2)cc1)C1CCCCC1` (stereo not drawn) came in with an I in test [1] of 39%.

In test [1], `CC(C)c1ccc(-c2csc(COc3ccc(C(O/N=C/C(=O)O)C4CCCCC4)cc3)n2)cc1` (stereo not drawn) displayed an I of 15%.

Compound `O=C(O)/C(=N/OC(c1ccc(OCc2ccc3ccccc3n2)cc1)C1CCCCC1)c1cccs1` (stereo not drawn) came in with an I in test [1] of 29%.

As for `O=C(O)/C=N/OC(c1cc2cc(OCc3ccc4ccccc4n3)ccc2o1)C1CCCCC1` (stereo not drawn), the I in test [1] was found to be 31%.

Consider `O=C(O)/C=N/OC(c1ccc(OCc2cnc3ccccc3n2)cc1)C1CCCCC1` (stereo not drawn), for which the I in test [1] stood at 28%.

Regarding `C/C(=N\OC(c1ccc(OCc2nc(-c3ccccc3)cs2)cc1)C1CCCCC1)C(=O)O` (stereo not drawn), the I in test [1] was 15%.

`C/C(=N\OC(CC(C)(C)c1ccccc1)c1ccc(OCc2ccc3ccccc3n2)cc1)C(=O)O` (stereo not drawn) gave an ED50 in test [2] of 2 mg/kg.

As for `C/C(=N\OC(c1ccc(OCc2ccc3cc(F)ccc3n2)cc1)C1CCCCC1)C(=O)O` (stereo not drawn), the ED50 in test [2] stood at 0.4 mg/kg.

`CC(/C=C/C(=O)O)=N\OC(c1ccc(OCc2ccc3ccccc3n2)cc1)C1CCCCC1` (stereo not drawn): the ED50 in test [2] turned out to be 2 mg/kg.

As for `COc1cc(OCc2ccc3ccccc3n2)ccc1C(O/N=C/C(=O)O)C1CCCCC1` (stereo not drawn), the I in test [1] worked out at 41%.

In test [2], `C/C(CCCC(=O)O)=N\OC(c1ccc(OCc2ccc3ccccc3n2)cc1)C1CCCCC1` (stereo not drawn) yielded a median effective dose (ED50) of 3 mg/kg.

Take `C/C(CCC(=O)O)=N\OC(c1ccc(OCc2ccc3ccccc3n2)cc1)C1CCCCC1` (stereo not drawn): in test [2], the ED50 turned out to be 1 mg/kg.

`CC(C)(C)Sc1c(CC(C)(C)C(=O)[O-])n(Cc2ccc(Cl)cc2)c2ccc(OCc3ccc4ccccc4n3)cc12.[Na+]` [QUIFLAPON SODIUM]: the ED50 in test [2] is 1.6 mg/kg.

In the case of `O=C(O)/C=N/OC(c1ccc(OCc2nc3ccccc3s2)cc1Br)C1CCCCC1` (stereo not drawn), the ED50 in test [2] is 1 mg/kg.

Turning to `Cc1cc(C(O/N=C/C(=O)O)C2CCCCC2)ccc1OCc1ccc2ccccc2n1` (stereo not drawn), the I in test [1] is 15%.

As for `C/C(CCC(=O)O)=N/OC(c1ccc(OCc2ccc3ccccc3n2)cc1)C1CCCCC1` (stereo not drawn), in test [1], the I is recorded as 62%.

As to `C/C(=N\OC(Cc1ccc(OCc2ccc3ccccc3n2)cc1)C1CCCCC1)C(=O)O` (stereo not drawn), the I in test [1] turned out to be 30%.

`O=C(O)/C=N/OC(c1ccc(OCc2nc3cccnc3s2)cc1)C1CCCCC1` (stereo not drawn) came in with an I in test [1] of 47%.

`CCCCC(CCCC)C(O/N=C(\C)C(=O)O)c1ccc(OCc2ccc3ccccc3n2)cc1` (stereo not drawn): the I in test [1] worked out at 40%.

As for `O=C(O)/C=N/OC(c1ccc(OCc2csc(-c3ccc(Cl)cc3)n2)cc1)C1CCCCC1` (stereo not drawn), the I in test [1] is listed as 30%.

As for `O=C(O)/C=N/OC(c1ccc(OCc2nc3cc(F)ccc3s2)cc1Cl)C1CCCCC1` (stereo not drawn), in test [2], the 50% effect level (ED50) was put at a dose of 1.7 mg/kg.

In the case of `C/C(=N\OC(Cc1ccccc1)c1ccc(OCc2ccc3ccccc3n2)cc1)C(=O)O` (stereo not drawn), in test [1], the I is reported as 36%.

For `C/C(=N\OC(c1ccc(OCc2ccc3ccccc3n2)cc1)C1CCCCCC1)C(=O)O` (stereo not drawn), in test [2], it took a dose of 0.7 mg/kg to reach the 50% effect level (ED50).

Take `Cc1nc(COc2ccc(C(O/N=C/C(=O)O)C3CCCCC3)cc2)cs1` (stereo not drawn): in test [1], the I turned out to be 4%.

For the compound `O=C(O)/C=N/OC(c1ccc(OCc2nc3cc(F)ccc3s2)cc1)C1CCCCC1` (stereo not drawn), the I in test [1] is recorded as 0%.

Compound `O=C(O)C1CCC(=NOC(c2ccc(OCc3ccc4ccccc4n3)cc2)C2CCCCC2)CC1` (stereo not drawn) displayed an I in test [1] of 9%.

`O=C(O)/C(CCc1ccccc1)=N/OC(c1ccc(OCc2ccc3ccccc3n2)cc1)C1CCCCC1` (stereo not drawn): in test [1], the I came to 34%.

For the compound `C/C(=N\OC(c1ccc(OCc2ccc3ccccc3n2)cc1)c1cccs1)C(=O)O` (stereo not drawn), the I in test [1] was found to be 6%.

In turn, `O=C(O)/C=N/OC(c1ccc(OCc2nc3ccccc3s2)cc1Cl)C1CCCCC1` (stereo not drawn) displayed an I in test [1] of 84%.

In test [1], `C/C(=N\OCC(c1ccc(OCc2ccc3ccccc3n2)cc1)C1CCCCC1)C(=O)O` (stereo not drawn) displayed an I of 33%.

Compound `C/C(=N\OC(c1ccc(OCc2nc3ccccc3s2)cc1)C1CCCCC1)C(=O)O` (stereo not drawn) registered an I in test [1] of 85%.

With `C/C(=N\OC(c1ccc(OCc2ccc3ccccc3n2)c(Cl)c1)C1CCCCC1)C(=O)O` (stereo not drawn), in test [2], it took a dose of 1.2 mg/kg to reach the 50% effect level (ED50).

With `O=C(O)/C=N/OC(c1ccc(OCc2ccc3ccccc3n2)cc1)C1C2CC3CC(C2)CC1C3` (stereo not drawn), the ED50 in test [2] was 1.2 mg/kg.

Compound `O=C(O)/C(=N\OC(c1ccc(OCc2ccc3ccccc3n2)cc1)C1CCCCC1)c1cccs1` (stereo not drawn) returned an I in test [1] of 60%.
